pIC50: −log10 of the molar value.
These compounds were tested against human HPK1 (MAP4K1) (Homo sapiens (Human), UniProt Q92918) (assay: HPK1 IC50 Assay). Conditions: recombinant HPK1 kinase domain 0.15 nM, synthetic peptide substrate STK S1, 3 hours at 25° C., time-resolved fluorescence energy transfer; geometric mean of multiple experiments.
Format: biochemical
Method: The enzymatic activity of human HPK1 (MAP4K1) was monitored in a biochemical assay in the presence or absence of compounds and using a synthetic peptide substrate. An increase in phosphorylation of the peptide by HPK1 was indicative of its kinase activity.
Recombinant HPK1 kinase domain produced via baculovirus infection of insect cells was obtained from Proteros (Proteros Biostructures #PR-0322) and was pre-activated in the presence of 2 mM ATP (Sigma-Aldrich, cat #GE27-2056-01) and 2 mM magnesium chloride for 16 hours at 4° C. The protein reaction mixture was then loaded to a desalting column (Thermo Fisher Scientific, Cat #89889) to remove excess ATP. HPK1 was eluted with buffer containing 20 mM Tris (2-Amino-2-(hydroxymethyl)propane-1,3-diol) pH 8.0, 150 mM NaCl, 2 mM dithiothreitol and 5% glycerol, and was frozen at −80° C. for later use. HPK1 dual phosphorylation was confirmed by mass spectrometry.
Ten nanoliters of test compounds dissolved in DMSO at various concentrations were dispensed into a 384-well ProxiPlate (PerkinElmer #6008289). Five microliters of a solution of recombinant HPK1 diluted in HPK1 kinase assay buffer (50 mM BES [N,N-Bis(2-hydroxyethyl)-2-aminoethanesulfonic acid], pH 7.0; 10 mM magnesium chloride; 0.01% Triton X-100; 1 mM dithiothreitol; 0.01% bovine serum albumin; 0.1 mM sodium orthovanadate) was added to the compound-containing plate and was incubated for 15 minutes at 25° C. Five microliters of a mixture of ATP (Sigma-Aldrich #A6559) and peptide substrate STK Si (Cisbio #61ST1BLC) diluted in HPK1 kinase assay buffer was then added to start the reaction. Final concentrations were 0.15 nM for HPK1, […], and 1 […]. The reaction mixture was incubated at 25° C. for 3 hours and was stopped with the addition of 10 μl of an EDTA (Ethylenediaminetetraacetic acid)-containing detection buffer (Cisbio #62SDBRDF) supplemented with Europium cryptate-labeled anti-phospho-serine/threonine antibodies (Cisbio #62ST1PEJ) and XL665-labeled streptavidin (Cisbio #610SAXLG). The mixture was incubated for 16 hours at room temperature and peptide phosphorylation was measured by time-resolved fluorescence energy transfer (665 nm/620 nm) on an Envision plate reader (PerkinElmer).
Data in Table 1 were normalized based on positive (staurosporine) and negative (DMSO) controls. Least squares curve fittings were performed using a four-parameter variable slope nonlinear regression model. IC50 is defined as the concentration of compound required to inhibit 50% of maximum phosphorylation. IC50 values from multiple experiments were averaged by geometric mean and the standard deviation was calculated.

human HPK1 (MAP4K1), sequence (Q92918 17-274): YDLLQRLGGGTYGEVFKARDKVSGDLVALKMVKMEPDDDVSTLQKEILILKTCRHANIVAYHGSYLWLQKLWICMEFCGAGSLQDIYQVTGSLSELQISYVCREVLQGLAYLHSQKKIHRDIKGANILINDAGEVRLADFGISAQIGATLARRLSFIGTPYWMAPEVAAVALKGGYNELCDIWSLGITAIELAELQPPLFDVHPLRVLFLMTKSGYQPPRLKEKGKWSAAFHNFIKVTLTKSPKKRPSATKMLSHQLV

pIC50 | SMILES
8.79 | Cc1c(-c2ccc3c(c2)/C(=C/c2cnn[nH]2)C(=O)N3)cnc2c1NCCO2 [Compound C27, (Z)-3-((1H-1,2,3-triazol-5-yl)methylene)-5-(8-methyl-2,3-dihydro-1H-pyrido[2,3-b][1,4]oxazin-7-yl)indolin-2-one]
10.30 | Cc1c(-c2cc(F)c3c(c2)/C(=C/c2cnc(C4CC4)[nH]2)C(=O)N3)cnc2c1NCCO2 [Compound C35, (Z)-3-((2-cyclopropyl-1H-imidazol-5-yl)methylene)-7-fluoro-5-(8-methyl-2,3-dihydro-1H-pyrido[2,3-b][1,4]oxazin-7-yl)indolin-2-one]
8.15 | Cc1c(-c2ccc3c(c2)/C(=C/c2cc4cnccc4[nH]2)C(=O)N3)ccc2c1NC(=O)CO2 [Compound C39, (Z)-6-(3-((1H-pyrrolo[3,2-c]pyridin-2-yl)methylene)-2-oxoindolin-5-yl)-5-methyl-2H-benzo[b][1,4]oxazin-3(4H)-one]
9.96 | Cc1c(-c2ccc3c(c2)/C(=C/c2cc4ccncc4[nH]2)C(=O)N3)cnc2c1NCCO2 [Compound C58, (Z)-3-((1H-pyrrolo[2,3-c]pyridin-2-yl)methylene)-5-(8-methyl-2,3-dihydro-1H-pyrido[2,3-b][1,4]oxazin-7-yl)indolin-2-one]
9.96 | Cc1cc2c(cc1-c1cnc3c(c1C)NCCO3)/C(=C/c1cc3ncccc3[nH]1)C(=O)N2 [Compound C38, (Z)-3-((1H-pyrrolo[3,2-b]pyridin-2-yl)methylene)-6-methyl-5-(8-methyl-2,3-dihydro-1H-pyrido[2,3-b][1,4]oxazin-7-yl)indolin-2-one]
9.89 | Cc1c(-c2ccc3c(c2)/C(=C/c2cnc(C4CC4)[nH]2)C(=O)N3)cnc2c1NCCO2 [Compound C34, (Z)-3-((2-cyclopropyl-1H-imidazol-5-yl)methylene)-5-(8-methyl-2,3-dihydro-1H-pyrido[2,3-b][1,4]oxazin-7-yl)indolin-2-one]
9.29 | Cc1c(-c2cc(F)c3c(c2C)/C(=C/c2cc4ccccc4[nH]2)C(=O)N3)cnc2c1NCCO2 [Compound C56, (Z)-3-((1H-indol-2-yl)methylene)-7-fluoro-4-methyl-5-(8-methyl-2,3-dihydro-1H-pyrido[2,3-b][1,4]oxazin-7-yl)indolin-2-one]
10.05 | CCN(CC)CCNC(=O)c1c(C)[nH]c(/C=C2\C(=O)Nc3c(F)cc(-c4cnc5c(c4C)NCCO5)cc32)c1C [Compound C9, (Z)—N-(2-(diethylamino)ethyl)-5-((7-fluoro-5-(8-methyl-2,3-dihydro-1H-pyrido[2,3-b][1,4]oxazin-7-yl)-2-oxoindolin-3-ylidene)methyl)-2,4-dimethyl-1H-pyrrole-3-carboxamide]
10.30 | Cc1c[nH]c(/C=C2\C(=O)Nc3c(F)cc(-c4cnc5c(c4C)NCCO5)cc32)c1 [Compound C25, (Z)-7-fluoro-3-((4-methyl-1H-pyrrol-2-yl)methylene)-5-(8-methyl-2,3-dihydro-1H-pyrido[2,3-b][1,4]oxazin-7-yl)indolin-2-one]
8.13 | Cc1ncc(/C=C2\C(=O)Nc3c(F)cc(-c4cnc5c(c4)NCCO5)c(C)c32)[nH]1 [Compound C5, (Z)-5-(2,3-dihydro-H-pyrido[2,3-b][1,4]oxazin-7-yl)-7-fluoro-4-methyl-3-((2-methyl-TH-imidazol-5-yl)methylene)indolin-2-one]
8.53 | Cc1c[nH]c(/C=C2\C(=O)Nc3c(C)cc(-c4cnc5c(c4C)NCCO5)cc32)c1 [Compound C24, (Z)-7-methyl-3-((4-methyl-1H-pyrrol-2-yl)methylene)-5-(8-methyl-2,3-dihydro-1H-pyrido[2,3-b][1,4]oxazin-7-yl)indolin-2-one]
9.77 | Cc1c(-c2cc(F)c3c(c2)/C(=C/c2cc4ccncc4[nH]2)C(=O)N3)cnc2c1NCCO2 [Compound C45, (Z)-3-((1H-pyrrolo[2,3-c]pyridin-2-yl)methylene)-7-fluoro-5-(8-methyl-2,3-dihydro-1H-pyrido[2,3-b][1,4]oxazin-7-yl)indolin-2-one]
10.30 | CCN(CC)CCNC(=O)c1c(C)[nH]c(/C=C2\C(=O)Nc3ccc(-c4cnc5c(c4C)NCCO5)cc32)c1C [Compound C16, (Z)—N-(2-(diethylamino)ethyl)-2,4-dimethyl-5-((5-(8-methyl-2,3-dihydro-1H-pyrido[2,3-b][1,4]oxazin-7-yl)-2-oxoindolin-3-ylidene)methyl)-1H-pyrrole-3-carboxamide]
9.38 | Cc1c(-c2ccc3c(c2)/C(=C/c2c[nH]c4ccccc24)C(=O)N3)cnc2c1NCCO2 [Compound C70, (Z)-3-((1H-indol-3-yl)methylene)-5-(8-methyl-2,3-dihydro-1H-pyrido[2,3-b][1,4]oxazin-7-yl)indolin-2-one]
9.54 | Cc1c(-c2cc(F)c3c(c2C)/C(=C/c2ccc[nH]2)C(=O)N3)cnc2c1NCCO2 [Compound C14, (Z)-3-((1H-pyrrol-2-yl)methylene)-7-fluoro-4-methyl-5-(8-methyl-2,3-dihydro-1H-pyrido[2,3-b][1,4]oxazin-7-yl)indolin-2-one]
9.36 | C/C(=C1/C(=O)Nc2ccc(-c3cnc4c(c3C)NCCO4)cc21)c1cnc[nH]1 [Compound C11, (Z)-3-(1-(1H-imidazol-5-yl)ethylidene)-5-(8-methyl-2,3-dihydro-1H-pyrido[2,3-b][1,4]oxazin-7-yl)indolin-2-one]
8.25 | Cc1c(-c2ccc3c(c2)/C(=C/c2ncc[nH]2)C(=O)N3)cnc2c1NC(=O)C1(CC1)O2 [Compound C33, (Z)-7′-(3-((1H-imidazol-2-yl)methylene)-2-oxoindolin-5-yl)-8′-methylspiro[cyclopropane-1,3′-pyrido[2,3-b][1,4]oxazin]-2′(1′H)-one]
10.15 | Cc1cc2c(cc1-c1cnc3c(c1C)NCCO3)/C(=C/c1cc3cnccc3[nH]1)C(=O)N2 [Compound C40, (Z)-3-((1H-pyrrolo[3,2-c]pyridin-2-yl)methylene)-6-methyl-5-(8-methyl-2,3-dihydro-1H-pyrido[2,3-b][1,4]oxazin-7-yl)indolin-2-one]
9.16 | Cc1cc2c(cc1-c1cnc3c(c1C)NCCO3)/C(=C/c1cc3ccncc3[nH]1)C(=O)N2 [Compound C37, (Z)-3-((1H-pyrrolo[2,3-c]pyridin-2-yl)methylene)-6-methyl-5-(8-methyl-2,3-dihydro-1H-pyrido[2,3-b][1,4]oxazin-7-yl)indolin-2-one]
10.30 | Cc1c(-c2cc3c(cc2F)NC(=O)/C3=C\c2cc3ncccc3[nH]2)cnc2c1NCCO2 [Compound C44, (Z)-3-((1H-pyrrolo[3,2-b]pyridin-2-yl)methylene)-6-fluoro-5-(8-methyl-2,3-dihydro-1H-pyrido[2,3-b][1,4]oxazin-7-yl)indolin-2-one]
10.30 | Cc1ccc(/C=C2\C(=O)Nc3ccc(-c4cnc5c(c4C)NCCO5)cc32)[nH]1 [Compound C17, (Z)-3-((5-methyl-H-pyrrol-2-yl)methylene)-5-(8-methyl-2,3-dihydro-1H-pyrido[2,3-b][1,4]oxazin-7-yl)indolin-2-one]
8.91 | Cc1c(-c2cnc3c(c2)/C(=C/c2cc4ccccc4[nH]2)C(=O)N3)cnc2c1NCCO2 [Compound C55, (Z)-3-((1H-indol-2-yl)methylene)-5-(8-methyl-2,3-dihydro-1H-pyrido[2,3-b][1,4]oxazin-7-yl)-1,3-dihydro-2H-pyrrolo[2,3-b]pyridin-2-one]

From patent US11453681B2, “Substituted eneoxindoles and uses thereof” (Gilead Sciences, Inc., priority 2019, dated 2022)
